From publication PMC7504417 (International Journal of Molecular Sciences, 2020)
Counter-ions that a name gives are not always drawn. Like-named read-outs stand apart in the source and are kept apart here.

Columns and labels:
[1] = target: Histamine Receptor (histamine 1 receptor peptides) (Homo sapiens, UniProt P35367); assay: biochemical; assay type: binding; conditions: first symbol of the cell
[2] = target: Adrenergic Receptor (beta 2 adrenergic receptor peptides) (Homo sapiens, UniProt P07550); assay: Overall pattern of binding: Adrenergic Receptor peptides
Adrenergic Receptor (beta 2 adrenergic receptor peptides), sequence (P07550 with tags, fused parts or gaps): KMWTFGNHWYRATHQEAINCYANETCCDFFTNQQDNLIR
Method: (§1) The method used was ultraviolet spectrophotometry, which is a sensitive way to test for the binding of pairs of molecules. Binding data obtained using this method have previously been validated by direct comparison to results of nuclear magnetic resonance, circular dichroism, capillary electrophoresis, and other physicochemical methods (e.g., [51, 87, 88, 89, 90]).
(§2) For each individual test, the concentration of the stock solution was calculated and then diluted to a 10 µM solution.
(§3) Thus, the final concentration of receptor peptide in each well varied from 0.5 mM to 0.05 pM while the other compound was held fixed at 5 µM.
(§4) The method of calculating binding constants was to measure the absorbance (minus the absorbance of the buffer) of 100 µL of each compound by itself diluted by 100 µL of buffer at a given wavelength (in this case at 200 nm) at the range of concentrations utilized in the experiments. The average of the resulting values is calculated. (If the experiments are run properly, there is very little variance—a couple of percent. If there was more variance than that, the experiment was re-run.) An “expected” value is calculated following Beer’s law, by adding the absorbances of each pair of compounds (peptide plus small molecule). […]
(§5) The difference between the “expected” and actual values was determined at each concentration of the varied compound. […]

Glutathione = assay: Overall pattern of binding: Glutathione (reduced and oxidized)
receptor peptides tested = assay: UV spectrophotometry binding to all peptides tested (summary)
[3] = target: oxidized glutathione (Glut OX, ECG-ECG); assay: UV spectrophotometry binding to oxidized glutathione; conditions: UV spectrophotometry; single value, or first (higher-affinity) value of a cell a/b; read-out: Kd (µM) Glut OX ECG-ECG
[4] = target: T1, beta 2 adrenergic receptor peptide B2AR 183–185 NCY (Homo sapiens, UniProt P07550); assay: biochemical; assay type: binding; conditions: for binding to adrenergic receptor peptide 183–185 (NCY), in words: Figure 4; for Kd: UV spectrophotometry, read-out: Kd (µM) B2AR 183–185 NCY
T1 construct: B2AR 183–185 NCY; purchased RS Synthesis (Louisville, KY, USA); host or cells: chemical synthesis

[5] = target: reduced glutathione (Glut RED, ECG); assay: UV spectrophotometry binding to reduced glutathione; conditions: UV spectrophotometry at 200 nm, pH 7.00 phosphate-buffered saline, ca. 24 °C
[6] = target: Opioid Receptor (mu opioid receptor peptides) (Homo sapiens, UniProt P35372); assay: Overall pattern of binding: Opioid Receptor peptides
Opioid Receptor (mu opioid receptor peptides), sequence (P35372 with tags, fused parts or gaps): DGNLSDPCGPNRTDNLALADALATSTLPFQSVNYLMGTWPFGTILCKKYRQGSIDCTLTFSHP
Method: as §1, §2, §3
The method of calculating binding constants was to measure the absorbance (minus the absorbance of the buffer) of 100 µL of each compound by itself diluted by 100 µL of buffer at a given wavelength (in this case at 200 nm) at the range of concentrations utilized in the experiments. The average of the resulting values is calculated. (If the experiments are run properly, there is very little variance—a couple of percent. If there was more variance than that, the experiment was re-run.) An “expected” value is calculated following Beer’s law, by adding the absorbances of each pair of compounds (peptide plus small molecule). The actual chemical combinations of these molecules was then run under identical conditions.
The difference between the “expected” and actual values was determined at each concentration of the varied compound. This difference was then plotted against the concentration of the varied compound. […] The binding constant was approximated by using the inflection point of the binding curve (i.e., the point at which the dissociation and association of the two molecules was equal). […] All data were analyzed using Microsoft Excel.
Because the resulting absorbances are the differences between the independently measured absorbances, it is not possible to calculate error bars or to perform statistics on the resulting values.

[7] = target: T2, histamine 1 receptor peptide HIHR 177–183 RDKCETD (Homo sapiens, UniProt P35367, E177R); assay: biochemical; assay type: binding
T2 construct: HIHR 177–183 RDKCETD; purchased RS Synthesis (Louisville, KY, USA); host or cells: chemical synthesis

[8] = target: Dopamine Receptor (dopamine 1 receptor peptides) (Homo sapiens, UniProt P21728); assay: Overall pattern of binding: Dopamine Receptor peptides
Dopamine Receptor (dopamine 1 receptor peptides), sequence (P21728 with tags, fused parts or gaps): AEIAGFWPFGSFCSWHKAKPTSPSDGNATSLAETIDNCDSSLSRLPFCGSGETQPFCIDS
Method: as §1, §2, §3, §4, §5

[9] = target: T3, mu opioid receptor peptide Mu OPR 132–143 (Homo sapiens, UniProt P35372); assay: biochemical; assay type: binding
T3 construct: Mu OPR 132–143; purchased RS Synthesis (Louisville, KY, USA); host or cells: chemical synthesis

[10] = target: T4, insulin receptor peptide INSR 157–166 (Homo sapiens, UniProt P06213); assay: biochemical; assay type: binding; conditions: UV spectrophotometry; read-out: Kd (µM) INSR 157–166
T4 construct: INSR 157–166; purchased RS Synthesis (Louisville, KY, USA); host or cells: chemical synthesis

[11] = target: T5, mu opioid receptor peptide Mu OPR 38–51 (Homo sapiens, UniProt P35372); assay: biochemical; assay type: binding
T5 construct: Mu OPR 38–51; purchased RS Synthesis (Louisville, KY, USA); host or cells: chemical synthesis

[12] = target: T6, beta 2 adrenergic receptor peptide B2AR 105–108 WCEF (Homo sapiens, UniProt P07550); assay: biochemical; assay type: binding
T6 construct: B2AR 105–108 WCEF; purchased RS Synthesis (Louisville, KY, USA); host or cells: chemical synthesis

[13] = target: T7, mu opioid receptor peptide Mu OPR 211–226 (Homo sapiens, UniProt P35372); assay: biochemical; assay type: binding
T7 construct: Mu OPR 211–226; purchased RS Synthesis (Louisville, KY, USA); host or cells: chemical synthesis

[14] = target: T8, insulin receptor peptide INSR 392–404 (Homo sapiens, UniProt P06213); assay: biochemical; assay type: binding; conditions: UV spectrophotometry
T8 construct: purchased RS Synthesis (Louisville, KY, USA); host or cells: chemical synthesis

[15] = target: dopamine 1 receptor peptide D1DR 96–98 FCN (Homo sapiens, UniProt P21728); assay: biochemical
[16] = target: T9, histamine 1 receptor peptide H1HR 105–108 SMDY (Homo sapiens, UniProt P35367); assay: biochemical; assay type: binding; conditions: read-out: Kd (µM) H1HR 105–108 SMDY
T9 construct: H1HR 105–108 SMDY; purchased RS Synthesis (Louisville, KY, USA); host or cells: chemical synthesis

[17] = target: T10, histamine 1 receptor peptide H1HR 77–87 GAVVMPMNILYL (Homo sapiens, UniProt P35367); assay: biochemical; assay type: binding; conditions: read-out: Kd (µM) H1HR 77–87 […]
T10 construct: H1HR 77–87 GAVVMPMNILYL; purchased RS Synthesis (Louisville, KY, USA); host or cells: chemical synthesis

[18] = target: T11, mu opioid receptor peptide Mu OPR 111–122 (Homo sapiens, UniProt P35372); assay: biochemical; assay type: binding
T11 construct: Mu OPR 111–122; purchased RS Synthesis (Louisville, KY, USA); host or cells: chemical synthesis

[19] = target: T12, mu opioid receptor peptide Mu OPR 121–131 (Homo sapiens, UniProt P35372); assay: biochemical; assay type: binding
T12 construct: Mu OPR 121–131; purchased RS Synthesis (Louisville, KY, USA); host or cells: chemical synthesis

[20] = target: T13, beta 2 adrenergic receptor peptide B2AR 97–103 KMWTFGN (Homo sapiens, UniProt P07550); assay: biochemical; assay type: binding
T13 construct: B2AR 97–103 KMWTFGN; purchased RS Synthesis (Louisville, KY, USA); host or cells: chemical synthesis

[21] = system: glutathione S-transferase A-5 and CYP3A2 expression in rat liver; design: method as in PMID 20487198; conditions: exposure to opioid; cited from earlier work
[22] = intrathecal delivery; cited from earlier work
[23] = UV spectrophotometry, read-out: Kd (µM) HIHR 177–183 RDKCETD
[24] = UV spectrophotometry, read-out: Kd (µM) B2AR 105–108 WCEF
[25] = UV spectrophotometry, read-out: Kd (µM) B2AR 97–103 KMWTFGN
[26] = UV spectrophotometry, single value, or first (higher-affinity) value of a cell a/b
[27] = UV spectrophotometry, single value, or first (higher-affinity) value of a cell a/b, read-out: Kd (µM) Mu OPR 38–51

Histamine Receptor (histamine 1 receptor peptides), sequence (P35367 with tags, fused parts or gaps): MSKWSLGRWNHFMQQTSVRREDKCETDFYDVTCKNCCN

Row | Structure (SMILES) | Kd [3] | binding to adrenergic receptor peptide 183–185 (NCY), in words [4] | Kd [5] | Kd [7, 23] | Kd [10] | Kd [4] | Kd [12, 24] | Kd [14] | Kd [15] | Kd [20, 25] | Kd [16, 26] | Kd [17, 26] | further results
1 | OC[C@H]1OC(O)[C@H](O)[C@@H](O)[C@@H]1O (stereo partly drawn) [Glucose, glucose] | > 1000 µM | No binding was observed | > 1000 µM | > 1000 µM | – | – | – | – | – | – | – | – | Kd [1]: > 60 µM; Kd [2]: > 60 µM; binding to either reduced or oxidized glutathione, in words (Glutathione): do not bind appreciably; observable affinity of the peptides tested, in words (receptor peptides tested): none of the peptides tested had observable affinity; Kd [6]: > 60 µM; Kd [8]: > 60 µM
2 | O=C1OC(C(O)CO)C(=O)C1=O (stereo not drawn) [Dehydro Asc, dehydroascorbic acid] | 60 µM | – | 60 µM | – | 150 µM | 500 µM | 20 µM | > 1000 µM | 20 µM | 60 µM | – | – | Kd [9]: > 1000 µM; Kd ([11]; read-out: Kd (µM) Mu OPR 38–51): > 1000 µM; Kd ([5]; listed as dehydroascorbic acid): ~60 µM; Kd [13]: 150 µM; Kd [7]: > 1000 µM; Kd [16]: 15 µM; Kd [17]: 35 µM; Kd [18]: > 1000 µM; Kd [19]: > 1000 µM
3 | COc1ccc2c3c1O[C@H]1C(=O)CC[C@@]4(O)[C@@H](C2)N(C)CC[C@]314 [oxycodone] | – | – | – | – | – | – | – | – | – | – | – | – | expression in rat liver of glutathione S-transferase A-5 [21]: greater than six-fold increase; expression of the cytochrome enzyme CYP3A2 [21]: decreased seven-fold
4 | CN1CC[C@]23c4c5ccc(O)c4O[C@H]2[C@@H](O)C=C[C@H]3[C@H]1C5 [Morphine, morphine sulfate] | – | – | – | – | – | – | – | – | 25 µM | – | – | – | transient cerebrospinal fluid concentrations [22]: approximately 25 µM
5 | NCCc1c[nH]c2ccc(O)cc12 [Serotonin, serotonin] | > 1000 µM | – | 70 µM | 60 µM | – | – | – | – | – | – | 120 µM | 50 µM | Kd [12]: 45 µM; Kd ([6]; first symbol of the cell): > 60 µM; Kd [20]: 430 µM
6 | N[C@@H](Cc1ccc(O)cc1)C(=O)O [Tyrosine, tyrosine] | 130 µM | Significant binding | 130 µM | 50 µM | 90 µM | 35 µM | 50 µM | > 1000 µM | 22 µM | > 1000 µM | 50 µM | > 1000 µM | Kd [9, 26]: 60 µM; Kd [11, 27]: 85 µM; Kd [13, 26]: 160 µM; Kd [18, 26]: 700 µM; Kd [19, 26]: > 1000 µM
7 | CNC[C@H](O)c1cccc(O)c1 [Phenylephrine, phenylephrine] | 12 µM | – | 5 µM | 50 µM | 70 µM | – | – | > 1000 µM | 50 µM | – | – | – | Kd [9]: 60 µM; binding to muOPR 132–143, in words ([9]; Figure 6): significant binding; Kd ([11]; read-out: Kd (µM) Mu OPR 38–51): 1 µM; Kd ([11]; read-out: Kd (µM) Mu OPR 38–51, lower-affinity binding): 30 µM; Kd [13]: 150 µM; Kd [16]: 50 µM; Kd ([17]; Kd (µM) H1HR 77–87 GAVVMPMNILYL): > 1000 µM; Kd [18]: 150 µM; Kd [19]: > 1000 µM
8 | CC(=O)OCC[N+](C)(C)C [Acetylcholine, acetylcholine] | > 1000 µM | No binding was observed | > 1000 µM | > 1000 µM | – | – | – | – | – | – | > 1000 µM | > 1000 µM | Kd [1]: > 60 µM; Kd ([2]; first symbol of the cell): > 60 µM; observable affinity of the peptides tested, in words (receptor peptides tested): none of the peptides tested had observable affinity; Kd ([6]; first symbol of the cell): > 60 µM; Kd ([8]; first symbol of the cell): > 60 µM
9 | N[C@@H](Cc1ccccc1)C(=O)O [Phenylalanine, phenylalanine] | 90 µM | Significant binding | > 1000 µM | 50 µM | 90 µM | 30 µM | 55 µM | > 1000 µM | 25 µM | > 1000 µM | 60 µM | > 1000 µM | Kd [9, 26]: 80 µM; Kd [11, 27]: 50 µM; Kd [13, 26]: 200 µM; Kd [18, 26]: > 1000 µM; Kd [19, 26]: > 1000 µM
